Test results taken from patent US4921865A, “Aminoacylates of glycerol acetal” (Societe de Conseils de Recherches et d'Applications …, priority 1987, dated 1990).

Assays:
[1] = target: T1, [^3 H]-PAF binding, platelet membrane (Oryctolagus cuniculus, UniProt G1TEI7); assay: inhibition of specific [3H]-PAF binding to rabbit platelet membranes; settings: 1 nM [3H]-PAF, 0°C 1 h 30
T1 construct: Platelet membrane homogenate was stored at -80° C; from tissue; host or cells: rabbit platelets (membrane homogenate from lysed washed platelets)
T1 sequence (G1TEI7 1-342): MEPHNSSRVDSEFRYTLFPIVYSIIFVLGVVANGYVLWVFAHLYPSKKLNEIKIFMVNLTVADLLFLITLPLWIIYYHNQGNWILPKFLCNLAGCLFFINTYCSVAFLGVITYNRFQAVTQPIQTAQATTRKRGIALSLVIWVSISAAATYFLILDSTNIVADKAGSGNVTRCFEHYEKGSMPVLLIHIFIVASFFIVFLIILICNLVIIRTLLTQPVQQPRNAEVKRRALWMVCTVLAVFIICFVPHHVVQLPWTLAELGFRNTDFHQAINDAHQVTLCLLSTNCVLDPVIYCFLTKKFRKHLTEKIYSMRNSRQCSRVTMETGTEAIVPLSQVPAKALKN
Description: Synthetic tritiated [^3 H]-PAF used was in ethanol solution with a specific activity of 59.5 ci/mmols. Unlabelled PAF and lyso-PAF were solubilized in ethanol solution and stored at -80° C. The compounds were solubilized in DMSO.
Rabbit whole blood (6 volumes) was drawn from the central ear artery into 1 volume of ACD solution (citric acide 1.4 g, sodium citrate 2 5 g, Dextrose 2 g per 100 ml of H2 O) and centrifuged at 150 g for 15 minutes. The platelet-rich plasma (PRP) was carefully removed and centrifuged for 15 minutes at 1000 g. The platelet pellet was then washed 3 times: twice in Tris-HCl buffer 10 mM, pH 7.4 containing NaCl 150 mM, MgCl2 5 mM, EDTA 2 mM and the last time in the same but sodium-free buffer.
The platelet pellet was resuspended in this latter buffer, quickly frozen in liquid nitrogen and slowly thawed at room temperature for at least 3 times as described by T. Y. Shen et al. The lysed platelets were centrifuged at 100,000 g for 30 minutes in a BECKMAN model L8.55 ultra centrifuge (rotor 50.2 Ti). Platelet membrane homogenate was stored at -80° C. and used within two weeks without noticeable changes in PAF-acether binding characteristics.
Protein contain was determined by the Lowry method using bovine serum albumine as standard.
60 to 100 μg of membrane proteins were added to a final volume of 1 ml in plastic tubes containing 1 nM [^3 H]-PAF in Tris-HCl 10 mM pH 7 buffer containing 0.025 % bovine serum albumin and incubated with or without unlabelled PAF or PAF-antagonists. The incubation was carried out for 1 h 30 at 0° C. The bound [^3 H]-PAF was separated from the free [^3 H]-PAF by immediate filtration through whatman GF/C glass fiber filters under vacuum (Brandel system). The reaction and the filters were washed 3 times with 5 ml of ice-cold buffer. The filters were then placed into polyethylene phials filled up with 10 ml of liquid scintillation fluid and the radioactivity was measured by an LKB β counter with 45% efficiency.
The non specific binding was determined in the presence of 10^-6 M of unlabelled PAF. The specific binding was calculated by substracting non specific binding from the total binding. The inhibition by compounds on the specific [^3 H]-PAF binding was determined as the percent inhibition by the equation: [formula]

[2] = test system: PAF-induced thrombocytopenia; assay: PAF-induced thrombocytopenia in the guinea pig; type: in vivo; settings: for Percentage Variation (thrombocytopenia): vs control; for Percentage Decrease in leukocyte number: thrombocytopenia
Description: (§1) Male Guinea-pig (400-500 g) were anesthetized with urethane (1.5 g/kg: IP) prior to be tracheotomized and ventilated with a respiratory pump (UGO BASILE) (70-80 breath/minute, 1 ml air/100 g/breath) to abolish spontaneous respiration a pneumothorax was performed. The resistance to inflation was measured with a pressure transducer (UGO BASILE) against an initial pressure of 10 cm H2 O according to Konzett and Rossler. Animals were allocated into groups and were treated or not by the compounds of the invention (0.05, 0.1, 0.5, 1 and 5 mg/kg).The products were given IV 1 hour before challenge with PAF.
(§2) The animals were challenged with various doses of PAF ([…]) given intravenously, and the variations in the resistance to inflation were recorded.
(§3) Blood samples were collected prior to and 1,5 and 10 minutes following to PAF-challenge. Forty μl of blood were diluted in 10 ml isoton (Coultronics, France); erythrocytes were lysed with Zapoglobin (France) prior leukocytes were counted in a coulter counter. To determine platelet number, 40 μl of blood were diluted in 2 ml isoton and centrifuged at 100 runs per minute for 30 secondes, 100 μl of the supernatant were collected and further diluted in 10 ml isoton prior counting in a coulter counter.

[3] = test system: polymorphonuclear leukocytes (PMNs); assay: antagonism of polymorphonuclear leukocyte aggregation induced by PAF; type: cell-based, rat (Wistar); settings: rat PMNs, PAF 10^-8
Description: Polymorphonuclear leukocytes (PMNs) were obtained as described by A. W. Ford-Hutchinson et al. (Br - J. Pharmacol. 76, 367-371, 1982). Cell suspensions ([…]) were prepared from peritoneal exudates obtained after a 5 ml IP injection of sodium caseinate 12% (w/v) to male Wistar rats, 300 g body weight.
After centrifugation, cells were washed with Hanks and resuspended in MEM/Hepes 30 mM medium (PM=7.4) at a concentration of 10^7 cells/ml. Cytochalasin B (5 μg/ml) was added 10 minutes before trigering aggregation to amplify the PMNs aggregation. The light transmittance through the cell suspension (400 μl) was measured under a 900 R/mn magnetic stirring, with a dual beam aggregometer (Chronolog Corp. Coultronics.)
The control cuvet is the cell suspension diluted to 20% of the cell count with MEM and the difference represents 100% transmittance. Change in transmittance, which occurs when PAF is added, was continuously recorded.
Drugs solubilized in MEM/Hepes were added (4 μl) to PMNs suspension 2 minutes before PAF addition.

PAF-induced leukopenia = PAF-induced leukopenia in the guinea pig; type: in vivo; settings: for Percentage Variation (leukopenia): vs control
Description: as §1, §2, §3

Structure (SMILES): CCCCCCCCCCCCCCCCCC1(C)OCC(COC(=O)CCCCC[n+]2ccccc2)O1 (stereo not drawn) [Example 9, 2-heptadecyl 2-methyl 4-[6'-(N-pyridinium)hexanoyloxymethyl] 1,3 dioxolan bromide]
- IC50 [1]: 0.035 µM
- Percentage Variation (thrombocytopenia) ([2]; 0.05 mg/kg IV, 1 mn): -34.1%
- Percentage Variation (thrombocytopenia) ([2]; 0.05 mg/kg IV, 5 mn): +1.4%
- Percentage Variation (thrombocytopenia) ([2]; 0.05 mg/kg IV, 10 mn): -15.1%
- Percentage Variation (thrombocytopenia) ([2]; 0.1 mg/kg IV, 1 mn): -56.1%
- Percentage Variation (thrombocytopenia) ([2]; 0.1 mg/kg IV, 5 mn): -18.2%
- Percentage Variation (thrombocytopenia) ([2]; 0.1 mg/kg IV, 10 mn): -0.5%
- Percentage Variation (thrombocytopenia) ([2]; 0.5 mg/kg IV, 1 mn): -71.9%
- Percentage Variation (thrombocytopenia) ([2]; 0.5 mg/kg IV, 5 mn): -77.4%
- Percentage Variation (thrombocytopenia) ([2]; 0.5 mg/kg IV, 10 mn): -74.4%
- Percentage Variation (thrombocytopenia) ([2]; 1 mg/kg IV, 1 mn): -83.2%
- Percentage Variation (thrombocytopenia) ([2]; 1 mg/kg IV, 5 mn): -46.9%
- Percentage Variation (thrombocytopenia) ([2]; 1 mg/kg IV, 10 mn): -50.6%
- Percentage Variation (thrombocytopenia) ([2]; 5 mg/kg IV, 1 mn): -93.9%
- Percentage Variation (thrombocytopenia) ([2]; 5 mg/kg IV, 5 mn): -86.8%
- Percentage Variation (thrombocytopenia) ([2]; 5 mg/kg IV, 10 mn): -97.4%
- inhibition of PAF-induced thrombocytopenia (in words) ([2]; pyridinium compound 0.5, 1 and 5 mg/kg IV, quinolinium compound 0.5 and 1 mg/kg IV): inhibit
- Percentage Decrease in leukocyte number ([2]; 0.05 mg/kg IV, 1 mn): 45.2 +/- 1.20%
- Percentage Decrease in leukocyte number ([2]; 0.05 mg/kg IV, 5 mn): 43.0 +/- 4.80%
- Percentage Decrease in leukocyte number ([2]; 0.05 mg/kg IV, 10 mn): 36.1 +/- 2.41%
- Percentage Decrease in leukocyte number ([2]; 0.1 mg/kg IV, 1 mn): 30.1 +/- 13.72%
- Percentage Decrease in leukocyte number ([2]; 0.1 mg/kg IV, 5 mn): 34.7 +/- 3.60%
- Percentage Decrease in leukocyte number ([2]; 0.1 mg/kg IV, 10 mn): 42.3 +/- 4.79%
- Percentage Decrease in leukocyte number ([2]; 0.5 mg/kg IV, 1 mn): 19.3 +/- 10.19%
- Percentage Decrease in leukocyte number ([2]; 0.5 mg/kg IV, 5 mn): 9.6 +/- 12.15%
- Percentage Decrease in leukocyte number ([2]; 0.5 mg/kg IV, 10 mn): 10.9 +/- 9.94%
- Percentage Decrease in leukocyte number ([2]; 1 mg/kg IV, 1 mn): 11.5 +/- 6.21%
- Percentage Decrease in leukocyte number ([2]; 1 mg/kg IV, 5 mn): 22.5 +/- 3.27%
- Percentage Decrease in leukocyte number ([2]; 1 mg/kg IV, 10 mn): 21.0 +/- 3.87%
- Percentage Decrease in leukocyte number ([2]; 5 mg/kg IV, 1 mn): 4.2 +/- 2.35%
- Percentage Decrease in leukocyte number ([2]; 5 mg/kg IV, 5 mn): 5.6 +/- 1.84%
- Percentage Decrease in leukocyte number ([2]; 5 mg/kg IV, 10 mn): 1.1 +/- 1.15%
- IC50 ([3]; Leukocyte): 0.5 µM
- inhibition of PMN aggregation (in words) [3]: dose-dependently inhibit
- Percentage Decrease of leukocyte number (PAF-induced leukopenia; 0.05 mg/kg IV, 1 mn): 45.3 +/- 5.70%
- Percentage Variation (leukopenia) (PAF-induced leukopenia; 0.05 mg/kg IV, 1 mn): +11.0%
- Percentage Decrease of leukocyte number (PAF-induced leukopenia; 0.05 mg/kg IV, 5 mn): 21.6 +/- 3.42%
- Percentage Variation (leukopenia) (PAF-induced leukopenia; 0.05 mg/kg IV, 5 mn): -26.0%
- Percentage Decrease of leukocyte number (PAF-induced leukopenia; 0.05 mg/kg IV, 10 mn): 14.2 +/- 17.30%
- Percentage Variation (leukopenia) (PAF-induced leukopenia; 0.05 mg/kg IV, 10 mn): -57.6%
- Percentage Decrease of leukocyte number (PAF-induced leukopenia; 0.1 mg/kg IV, 1 mn): 41.8 +/- 6.50%
- Percentage Variation (leukopenia) (PAF-induced leukopenia; 0.1 mg/kg IV, 1 mn): +2.5%
- Percentage Decrease of leukocyte number (PAF-induced leukopenia; 0.1 mg/kg IV, 5 mn): 31.9 +/- 4.88%
- Percentage Variation (leukopenia) (PAF-induced leukopenia; 0.1 mg/kg IV, 5 mn): -9.2%
- Percentage Decrease of leukocyte number (PAF-induced leukopenia; 0.1 mg/kg IV, 10 mn): 33.5 +/- 4.65%
- Percentage Variation (leukopenia) (PAF-induced leukopenia; 0.1 mg/kg IV, 10 mn): 0.0%
- Percentage Decrease of leukocyte number (PAF-induced leukopenia; 0.5 mg/kg IV, 1 mn): 34.6 +/- 6.35%
- Percentage Variation (leukopenia) (PAF-induced leukopenia; 0.5 mg/kg IV, 1 mn): -15.2%
- Percentage Decrease of leukocyte number (PAF-induced leukopenia; 0.5 mg/kg IV, 5 mn): 19.0 +/- 6.42%
- Percentage Variation (leukopenia) (PAF-induced leukopenia; 0.5 mg/kg IV, 5 mn): -34.9%
- Percentage Decrease of leukocyte number (PAF-induced leukopenia; 0.5 mg/kg IV, 10 mn): 14.6 +/- 5.36%
- Percentage Decrease of leukocyte number (PAF-induced leukopenia; 1 mg/kg IV, 1 mn): 3.5 +/- 12.60%
- Percentage Variation (leukopenia) (PAF-induced leukopenia; 1 mg/kg IV, 1 mn): -91.4%
- Percentage Decrease of leukocyte number (PAF-induced leukopenia; 1 mg/kg IV, 5 mn): 2.9 +/- 10.51%
- Percentage Variation (leukopenia) (PAF-induced leukopenia; 1 mg/kg IV, 5 mn): -90.1%
- Percentage Decrease of leukocyte number (PAF-induced leukopenia; 1 mg/kg IV, 10 mn): 1.0 +/- 22.62%
- Percentage Variation (leukopenia) (PAF-induced leukopenia; 1 mg/kg IV, 10 mn): -97.0%
- Percentage Decrease of leukocyte number (PAF-induced leukopenia; 5 mg/kg IV, 1 mn): 16.5 +/- 2.42%
- Percentage Variation (leukopenia) (PAF-induced leukopenia; 5 mg/kg IV, 1 mn): -59.6%
- Percentage Decrease of leukocyte number (PAF-induced leukopenia; 5 mg/kg IV, 5 mn): 15.9 +/- 0.99%
- Percentage Variation (leukopenia) (PAF-induced leukopenia; 5 mg/kg IV, 5 mn): -45.5%
- Percentage Decrease of leukocyte number (PAF-induced leukopenia; 5 mg/kg IV, 10 mn): 18.7 +/- 5.08%
- Percentage Variation (leukopenia) (PAF-induced leukopenia; 5 mg/kg IV, 10 mn): -44.2%
